Test results as given in ChEMBL document CHEMBL1817607, “Synthesis and antiplasmodial activity of bicyclic dioxanes as simplified dihydroplakortin analogues” (J Med Chem, 2011).

What was measured:
[1] = system: Plasmodium falciparum; assay: Antiplasmodial activity against chloroquine-resistant Plasmodium falciparum W2 infected in human type A-positive RBC assessed as inhibition of parasite LDH activity after 72 hrs by spectrophotometric analysis; assay type: functional, organism-based; conditions: W2, 72 h
[2] = system: Plasmodium falciparum; assay: Antiplasmodial activity against chloroquine-sensitive Plasmodium falciparum D10 infected in human type A-positive RBC assessed as inhibition of parasite LDH activity after 72 hrs by spectrophotometrically; assay type: functional, organism-based; conditions: D10, 72 h

Row | Compound | IC50 [1] [µM] | IC50 [2] [µM]
1 | CCC(CC)C[C@@]1(C)C[C@@H](CC)[C@@H](CC(=O)OC)OO1 | 0.64 | 0.89
2 | CCC(CC)C[C@]1(C)C[C@@H](CC)[C@@H](CC(=O)OC)OO1 | 0.87 | 2.4
3 | CCC(CC)C[C@@]1(C)C[C@@H](CC)[C@@H]([C@H](O)CO)OO1 | 0.84 | 1.2
4 | CCC(CC)C[C@]1(C)C[C@@H](CC)[C@@H]([C@H](O)CO)OO1 | 1.3 | 2.4
5 | CC[C@@H]1CC(C)(C)OO[C@@H]1[C@H](O)CO | > 10 | > 10
6 | CC[C@@H]1CC(C)(C)OO[C@@H]1[C@H](O)COC(C)=O | > 10 | > 10
7 | CCCCC1(C)C[C@]2(C)CCO[C@@H]2OO1 (mixture of isomers) | 1.4 | 2.9
8 | CCCCCC1(C)C[C@]2(C)CCO[C@@H]2OO1 (mixture of isomers) | 1.5 | 2.9
9 | CCC(CC)CC1(C)C[C@]2(C)CCO[C@@H]2OO1 (mixture of isomers) | 0.39 | 0.76
10 | CC1(CC2CCCC2)C[C@]2(C)CCO[C@@H]2OO1 (mixture of isomers) | 0.34 | 0.55
11 | CC1(CC2CCCCC2)C[C@]2(C)CCO[C@@H]2OO1 (mixture of isomers) | 0.36 | 0.49
12 | CC1(CC2C3CC4CC(C3)CC2C4)C[C@]2(C)CCO[C@@H]2OO1 (mixture of isomers) | 0.15 | 0.23
13 | CCCCC1(C)C[C@@H]2CCO[C@@H]2OO1 (mixture of isomers) | > 10 | > 10
14 | CCCCCC1(C)C[C@@H]2CCO[C@@H]2OO1 (mixture of isomers) | > 10 | > 10
15 | CCC(CC)CC1(C)C[C@@H]2CCO[C@@H]2OO1 (mixture of isomers) | 8.6 | > 10
16 | CC(C)c1ccccc1[C@H]1C[C@]2(C)CCO[C@@H]2OO1 (racemic) | 4.6 | 8.3
17 | CC1(C)C[C@]2(C)CCO[C@@H]2OO1 (racemic) | > 10 | > 10
18 | CC[C@@]12CCO[C@@H]1OOC(C)(C)C2 (racemic) | > 10 | > 10
19 | CC(C)C[C@@]12CCO[C@@H]1OOC(C)(C)C2 (racemic) | > 10 | > 10
20 | C[C@@]12CCO[C@@H]1OO[C@@H](c1ccccc1)C2 (racemic) | > 20 | > 20
21 | Cc1ccccc1[C@H]1C[C@]2(C)CCO[C@@H]2OO1 (racemic) | 11 | > 20
22 | CCc1ccccc1[C@H]1C[C@]2(C)CCO[C@@H]2OO1 (racemic) | 7.7 | 15
23 | CC(C)Cc1ccccc1[C@H]1C[C@]2(C)CCO[C@@H]2OO1 (racemic) | 5.7 | 13
24 | C[C@@]12CCO[C@@H]1OO[C@H](c1ccccc1)C2 (racemic) | > 20 | > 20
25 | Cc1ccccc1[C@@H]1C[C@]2(C)CCO[C@@H]2OO1 (racemic) | > 20 | > 20
26 | CCc1ccccc1[C@@H]1C[C@]2(C)CCO[C@@H]2OO1 (racemic) | > 20 | > 20
27 | CC1(C)C[C@@H]2CCO[C@@H]2OO1 (relative stereo) | > 10 | > 10
